pIC50: −log10 of the molar value.
What follows are compounds tested against human Nav1.8 (Homo sapiens (Human), UniProt Q9Y5Y9) (assay: Nav1.8 Qube automated patch-clamp assay). Details: Nav1.8 Qube Assay; human Nav1.8 channels stably expressed in HEK 293 cells.
Format: cell-based
Description: Qube® Assay Experimental Procedure
Compounds were tested on human Nav1.8 and Nav1.5 channels stably expressed in human embryo kidney (HEK) 293 cells. Sodium current measurements on Qube® were conducted as follows: automated 384-well patch-clamp assays on the Qube® platform (Sophion Biosciences) were used to measure the inhibition of sodium flow through human Nav1.8 and Nav1.5 channels. Whole-cell voltage-clamp recordings were performed in QChips® (Sophion Biosciences) at room temperature. Nav1.8 current measurements on Qube® were obtained as follows: Nav1.8 currents were elicited with a 10 second 1 Hertz (Hz) pulse train from a holding potential of −90 millivolts (mV), delivered to the cells once per minute in the control condition (DMSO only) and after compound addition. The 1 hertz pulse train stimulation consisted of ten test pulses to 10 millivolt (mV) for 20 milliseconds (ms), each of which was followed by a 980 millisecond repolarization to −67 millivolts. At the end of the 10 second pulse train stimulation, a 5 second hyperpolarization step to −100 millivolt (mV) was used to recover Nav1.8 from fast inactivation. The peak currents elicited by the 1st and 10th test pulses were used to determine IC50 values for resting inhibition and inactivated state inhibition. Nav1.5 current measurements on Qube® were obtained as follows: Nav1.5 currents were elicited with a 20 second 3 Hertz pulse train in the control condition (DMSO only) and after compound addition. The pulse train consisted of sixty 20 millisecond test pulses to 0 millivolt from a holding potential of −80 millivolt (mV). The average peak currents elicited by the last 3 test pulses were used to determine IC50 values for Nav1.5 inhibition.
The following buffers were used for the Qube® recordings: External buffer for Nav1.8 Qube® recording: 150 NaCl, 2 CaCl2, 5 KCl, 1 Mg Cl2, 10 HEPES, 12 Dextrose; External buffer for Qube® Nav1.5 recording: 120 N-Methyl-D-Glucamine, 40 NaCl, 1 KCl, 2.7 CaCl2, 5 HEPES, 0.5 MgCl2; and Internal buffer for Qube® recording: 120 CsF, 30 CsCl, 10 EGTA, 5 HEPES, 5 NaF, 2 MgCl2.
For all Qube® experiments offline analysis was used to determine percent inhibition as a function of drug concentration. IC50 values were determined by fitting to the Hill equation.

human Nav1.8, sequence (Q9Y5Y9 whole entry): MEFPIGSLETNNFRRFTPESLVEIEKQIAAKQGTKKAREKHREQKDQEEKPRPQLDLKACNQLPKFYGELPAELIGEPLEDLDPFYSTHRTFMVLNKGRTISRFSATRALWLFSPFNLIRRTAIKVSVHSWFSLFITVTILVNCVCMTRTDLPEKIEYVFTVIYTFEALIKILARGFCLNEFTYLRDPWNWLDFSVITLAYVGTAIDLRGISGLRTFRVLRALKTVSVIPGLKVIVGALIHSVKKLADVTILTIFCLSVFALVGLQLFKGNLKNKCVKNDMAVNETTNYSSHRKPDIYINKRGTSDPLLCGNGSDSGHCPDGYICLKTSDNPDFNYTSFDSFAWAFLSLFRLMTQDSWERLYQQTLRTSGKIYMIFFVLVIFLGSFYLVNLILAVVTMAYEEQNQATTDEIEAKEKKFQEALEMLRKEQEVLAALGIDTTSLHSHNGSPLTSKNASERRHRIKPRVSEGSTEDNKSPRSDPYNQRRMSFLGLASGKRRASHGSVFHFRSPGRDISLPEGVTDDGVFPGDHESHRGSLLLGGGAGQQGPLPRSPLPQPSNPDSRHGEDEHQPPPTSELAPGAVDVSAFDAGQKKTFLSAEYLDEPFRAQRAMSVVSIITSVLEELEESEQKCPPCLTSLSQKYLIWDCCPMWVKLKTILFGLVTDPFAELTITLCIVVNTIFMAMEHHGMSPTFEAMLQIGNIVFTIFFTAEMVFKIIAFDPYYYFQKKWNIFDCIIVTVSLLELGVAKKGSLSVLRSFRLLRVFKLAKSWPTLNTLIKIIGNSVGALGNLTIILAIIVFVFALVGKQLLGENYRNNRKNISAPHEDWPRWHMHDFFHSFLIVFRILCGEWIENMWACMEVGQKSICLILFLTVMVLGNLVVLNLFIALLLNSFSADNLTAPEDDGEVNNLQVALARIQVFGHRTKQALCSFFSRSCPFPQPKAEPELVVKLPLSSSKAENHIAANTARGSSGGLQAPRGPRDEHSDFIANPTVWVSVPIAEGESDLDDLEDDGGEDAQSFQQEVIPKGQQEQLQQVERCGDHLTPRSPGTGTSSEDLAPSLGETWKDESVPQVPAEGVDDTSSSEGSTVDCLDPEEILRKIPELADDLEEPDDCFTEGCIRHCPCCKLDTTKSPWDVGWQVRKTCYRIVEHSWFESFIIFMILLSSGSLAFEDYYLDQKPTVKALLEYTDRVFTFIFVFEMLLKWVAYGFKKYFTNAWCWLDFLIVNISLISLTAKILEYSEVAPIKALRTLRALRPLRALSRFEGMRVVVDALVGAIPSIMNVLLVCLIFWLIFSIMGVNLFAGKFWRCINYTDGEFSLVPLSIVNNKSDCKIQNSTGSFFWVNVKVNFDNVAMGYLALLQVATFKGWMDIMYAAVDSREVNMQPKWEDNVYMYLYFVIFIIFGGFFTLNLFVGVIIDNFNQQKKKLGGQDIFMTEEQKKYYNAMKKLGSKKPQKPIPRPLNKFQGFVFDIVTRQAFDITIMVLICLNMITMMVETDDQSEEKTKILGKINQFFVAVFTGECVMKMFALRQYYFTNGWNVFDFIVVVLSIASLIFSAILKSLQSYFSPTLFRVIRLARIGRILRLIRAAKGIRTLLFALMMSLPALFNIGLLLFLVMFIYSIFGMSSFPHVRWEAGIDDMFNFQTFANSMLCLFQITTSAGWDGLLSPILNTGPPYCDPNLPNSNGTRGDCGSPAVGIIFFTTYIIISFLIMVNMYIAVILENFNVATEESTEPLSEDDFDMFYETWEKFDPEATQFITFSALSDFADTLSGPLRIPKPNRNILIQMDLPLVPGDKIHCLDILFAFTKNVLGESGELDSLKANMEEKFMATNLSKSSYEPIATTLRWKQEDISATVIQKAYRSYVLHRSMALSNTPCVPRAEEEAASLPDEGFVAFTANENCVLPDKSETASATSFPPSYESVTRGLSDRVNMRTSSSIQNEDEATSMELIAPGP

Row | SMILES | pIC50
1 | NS(=O)(=O)c1ccc(F)c(NC(=O)c2cc(C(F)(F)F)cnc2N2CCCCC2)c1 [Example 116, N-(2-fluoro-5-sulfamoyl-phenyl)-2-(1-piperidyl)-5-(tri-fluoromethyl)pyridine-3-carboxamide] | 5.52
2 | Cc1nc(N2CCCCCC2)c(C(=O)Nc2cccc(S(N)(=O)=O)c2)cc1Cl [Example 26, 2-(azepan-1-yl)-5-chloro-6-methyl-N-(3-sulfamoylphenyl)nicotinanmide] | 8.68
3 | NS(=O)(=O)c1cccc(NC(=O)c2cc(C(F)(F)F)cnc2N2CCCC2)c1 [Example 63, 2-pyrrolidin-1-yl-N-(3-sulfamoylphenyl)-5-(trifluoromethyl)pyridine-3-carboxamide] | 5.70
4 | NS(=O)(=O)c1cccc(NC(=O)c2cc(C(F)(F)F)cnc2N2CC3CC2CC3(F)F)c1 (single isomer, unassigned) [Example 137, 2-[(1S,4S or 1R,4R)-5,5-difluoro-2-azabicyclo-[2.2.1]heptan-2-yl]-N-(3-sulfamoylphenyl)-5-(trifluoromethyl)-pyridine-3-carboxamide] | 7.09
5 | N#Cc1ccc(NC(=O)c2cc(C(F)(F)F)cnc2N2CCCCCC2)cc1 [Example 22, 2-(azepan-1-yl)-N-(4-cyanophenyl)-5-(trifluoromethyl)pyridine-3-carboxamide] | 6.33
6 | NS(=O)(=O)c1cccc(NC(=O)c2cc(C(F)(F)F)cnc2N2CC3CCC(C2)O3)c1 [Example 52, 2-(8-oxa-3-azabicyclo[3.2.1]octan-3-yl)-N-(3-sulfamoyl-phenyl)-5-(trifluoro-methyl)pyridine-3-carboxamide] | 6.52
7 | NS(=O)(=O)c1cccc(NC(=O)c2cc(C(F)(F)F)cnc2N2CCC3(CC2)CC3)c1 [Example 43, 2-(6-azaspiro[2.5]octan-6-yl)-N-(3-sulfamoylphenyl)-5-(trifluoromethyl)nicotinamide] | 7.24
8 | CC1CN(c2ncc(C(F)(F)F)cc2C(=O)Nc2cccc(S(N)(=O)=O)c2)CC(C)O1 (single isomer, unassigned) [Example 149, 2-[(2R,6S or 2S,6R)-2,6-dimethylmorpholin-4-yl]-N-(3-sulfamoylphenyl)-5-(trifluoromethyl) pyridine-3-carboxamide] | 6.45
9 | NS(=O)(=O)c1cccc(NC(=O)c2cc(C(F)(F)F)cnc2N2CCCC3(C2)CC3(F)F)c1 (single isomer, unassigned) [Example 127, 2-[(3R or 3S)-2,2-difluoro-5-azaspiro[2.5]-octan-5-yl]-N-(3-sulfamoylphenyl)-5-(trifluoromethyl)-pyridine-3-carboxamide] | 6.96
10 | NC(=O)c1cccc(NC(=O)c2cc(C(F)(F)F)cnc2N2CCCCCCC2)c1 [Example 107, 2-(azocan-1-yl)-N-(3-carbamoylphenyl)-5-(trifluoromethyl)-pyridine-3-carboxamide] | 7.14
11 | Cc1cc(C(=O)Nc2cccc(S(C)(=O)=O)c2)c(N2CCCCCC2)nc1C [Example 36, 2-(azepan-1-yl)-5,6-dimethyl-N-(3-methyl-sulfonylphenyl)pyridine-3-carboxamide] | 7.51
12 | NC(=O)c1cccc(NC(=O)c2cc(Br)cnc2N2CCCCCC2)c1 [Example 38, 2-(azepan-1-yl)-5-bromo-N-(3-carbamoyl-phenyl)pyridine-3-carboxamide] | 6.55
13 | Cc1cc(C(=O)Nc2cccc(S(N)(=O)=O)c2)c(N2CCCCCC2)nc1C [Example 30, 2-(azepan-1-yl)-5,6-dimethyl-N-(3-sulfamoylphenyl) pyridine-3-carboxamide] | 7.92
14 | NS(=O)(=O)c1cccc(NC(=O)c2cc(C3CCC3)cnc2N2CCCC(F)(F)CC2)c1 [Example 159, 5-cyclobutyl-2-(4,4-difluoroazepan-1-yl)-N-(3-sulfamoylphenyl)nicotinamide] | 8.60
15 | CC1CN(c2ncc(C(F)(F)F)cc2C(=O)Nc2cccc(S(N)(=O)=O)c2)CCC1(F)F (single isomer, unassigned) [Example 123, (R or S)-2-(4,4-Difluoro-3-methylpiperidin-1-yl)-N-(3-sulfamoylphenyl)-5-(trifluoromethyl)nicotinamide] | 8.52
